The results in this text go back to patent publication US11638716B2, “Compounds, compositions, and methods for the treatment of disease” (F-star Therapeutics, Inc., priority 2017, dated 2023).

For test [1], the target named is T1, wild type STING (Homo sapiens, UniProt Q86WV6, H232R).
T1 construct: expressed in transfected cells; host or cells: THP1-Dual-KI-STING-R232 (made from THP-Dual-STING KO cells)
Briefly: IRF/NF-kB reporter cells, wild type STING. Format: cell-based. The settings on record: 20 hours. The procedure: (§1) FIG. 22 depicts cells stably expressing both or either one of the reporters to measure IRF and NF-kB activity were treated with a range of concentrations of compound 2 or DMSO control for 20 hours. IRF activity was assessed using QUANTI-luc to measure levels of Lucia and NF-kB activity was determined by measure SEAP levels at 620-655 nm. % induction was calculated from fold change in luminescence/absorbance compared to DMSO treated sample. EC50 values are generated by curve fit in Xlfit.
(§2) FIG. 24 depicts cells stably expressing both or either one of the reporters to measure IRF and NF-kB activity were treated with a range of concentrations of compound 3 or DMSO control for 20 hours. IRF activity was assessed using QUANTI-luc to measure levels of Lucia and NF-kB activity was determined by measure SEAP levels at 620-655 nm. % induction was calculated from fold change in luminescence/absorbance compared to DMSO treated sample. EC50 values are generated by curve fit in Xlfit.
(§3) FIG. 27 depicts cells stably expressing both or either one of the reporters to measure IRF and NF-kB activity were treated with a range of concentrations of compound 4 or DMSO control for 20 hours. IRF activity was assessed using QUANTI-luc to measure levels of Lucia and NF-kB activity was determined by measure SEAP levels at 620-655 nm. % induction was calculated from fold change in luminescence/absorbance compared to DMSO treated sample. EC50 values are generated by curve fit in Xlfit.
(§4) Cells grown in complete media were treated with various concentrations of a compound of the disclosure or DMSO control. […] After 20 h incubation, IRF activity was assessed using QUANTI-luc to measure levels of Lucia and NF-kB activity was determined by measure SEAP levels at 620-655 nm. % induction was calculated from fold change in luminescence/absorbance compared to DMSO treated sample. […]

Test [2] has as its target T2, wt-mSTING (Mus musculus, UniProt Q3TBT3).
T2 construct: endogenous in cells
T2 sequence (Q3TBT3 1-378): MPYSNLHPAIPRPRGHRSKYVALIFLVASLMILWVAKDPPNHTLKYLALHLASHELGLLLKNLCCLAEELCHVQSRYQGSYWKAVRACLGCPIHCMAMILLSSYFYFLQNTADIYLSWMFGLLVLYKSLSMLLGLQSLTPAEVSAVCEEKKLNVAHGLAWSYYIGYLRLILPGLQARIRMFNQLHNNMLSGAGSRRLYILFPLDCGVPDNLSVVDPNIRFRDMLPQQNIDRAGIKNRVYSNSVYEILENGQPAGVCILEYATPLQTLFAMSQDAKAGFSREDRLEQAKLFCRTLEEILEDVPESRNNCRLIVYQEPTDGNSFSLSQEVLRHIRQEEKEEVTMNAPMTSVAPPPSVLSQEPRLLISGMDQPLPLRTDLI
Briefly: IRF/NF-kB reporter cells, wt-mSTING. Type of test: cell-based. Particulars: 20 hours. The procedure:
as §1, §2, §3, §4

In test [3] the test system is CT26 murine colon carcinoma. Briefly: CT26 murine colon carcinoma model in female BALB/c mice. Format: in vivo, mouse. The procedure: Example 4: Study to Determine the Efficacy of Compound 4 in a CT26 Murine Colon Carcinoma Model Using Female BALB/c Mice
The animals were fed ad libitum water (reverse osmosis, 1 ppm Cl) and a NIH 31 Modified and Irradiated Lab Diet consisting of 18.0% crude protein, 5.0% crude fat, and 5.0% crude fiber.
CT26 murine colon carcinoma cells were grown in RPMI-1640 medium containing 10% fetal bovine serum, 2 mM glutamine, 100 units/mL penicillin G sodium, 100 μg/mL streptomycin sulfate, and 25 μg/mL gentamicin. The cells were cultured in tissue culture flasks in a humidified incubator at 37° C., in an atmosphere of 5% CO2 and 95% air.
On the day of implantation, cultured CT26 cells were harvested during log phase growth and resuspended in phosphate buffered saline, pH 7.4 (PBS) at a concentration of 3×10^6 cells/mL. Each mouse was injected subcutaneously in the right flank with 3×10^5 tumor cells (0.1 mL cell suspension) and tumors were monitored as their volumes approached the target range of 80 to 120 mm^3. Eleven days after tumor cell implantation, on Day 1 of the study, animals were sorted into three groups (n=8/group) with individual tumor volumes of 63 to 126 mm^3, and a group mean tumor volume of 105 mm^3. Tumors were measured with a caliper twice weekly for the duration of the study. Tumor size was calculated using the formula:
[formula] wherein w is width and 1 is length, in mm, of a tumor. Tumor weight may be estimated with the assumption that 1 mg is equivalent to 1 mm^3 of tumor volume. Test Articles
Compound 4 was dissolved by adding the appropriate volume of sterile saline (vehicle) into each tube, vortexing, incubating at 37° C. for 2-5 minutes, followed by sonication, if needed. […] A fresh vial was prepared on each day of dosing.
On Day 1 of the study, three groups of BALB/c mice (n=8) began dosing according to the protocol in FIG. 20. Compound 4 and vehicle were administered intravenously (i.v.). Group 1 received vehicle on Days 1, 5, 9, and 14. Groups 2 and 3 received CMD 4 at 1 and 3 mg/kg, respectively, on Days 1, 5, 9, and 14.
The study endpoint was a tumor volume of 2000 mm^3 or Day 30, whichever came first. The study ended on Day 29. The study protocol specified a tumor growth delay assay based on the median time-to-endpoint (TTE) in a treated group versus the control group. Tumors were measured using calipers twice per week, and each animal was euthanized for tumor progression (TP) when its tumor reached the 2000 mm^3 volume endpoint. The TTE for each mouse was calculated with the following equation:
[formula] where b is the intercept and m is the slope of the line obtained by linear regression of a log-transformed tumor growth data set. The data set is comprised of the first observation that exceeded the study endpoint volume and the three consecutive observations that immediately preceded the attainment of the endpoint volume. […] In instances in which the log-transformed calculated TTE preceded the day prior to reaching endpoint or exceeded the day of reaching tumor volume endpoint, a linear interpolation was performed to approximate TTE.
On Day 29, MTV (n) was defined as the median tumor volume of the number of animals, n, that survived to the last day and whose tumors had not reached the volume endpoint. Any animal determined to have died from treatment-related (TR) causes was to be assigned a TTE value equal to the day of death. Any animal that died from non-treatment-related (NTR) causes was to be excluded from the analysis. Treatment outcome was evaluated from tumor growth delay (TGD), which was defined as the increase in the median TTE for a treatment group compared to the control group: TGD=T−C expressed in days, or as a percentage of the median TTE of the control group:
[formula] wherein T is the median TTE for a treatment group and C is the median TTE for the control group. Tumor Growth Inhibition (TGI) Analysis […]

T1 sequence (Q86WV6 whole entry H232R): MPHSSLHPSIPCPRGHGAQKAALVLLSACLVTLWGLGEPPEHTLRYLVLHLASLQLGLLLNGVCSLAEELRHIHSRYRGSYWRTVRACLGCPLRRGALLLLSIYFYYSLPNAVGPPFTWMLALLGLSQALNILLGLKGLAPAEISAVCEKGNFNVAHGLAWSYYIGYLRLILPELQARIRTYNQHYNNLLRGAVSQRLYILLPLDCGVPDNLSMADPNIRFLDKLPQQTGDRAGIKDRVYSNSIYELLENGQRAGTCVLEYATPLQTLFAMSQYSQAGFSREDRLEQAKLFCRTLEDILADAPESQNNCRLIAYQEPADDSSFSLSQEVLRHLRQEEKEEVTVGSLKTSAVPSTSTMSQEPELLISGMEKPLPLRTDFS

In the case of `CCCCCCCCCCOc1ccc(C(=O)Oc2ccc(CSP3(=O)OC[C@H]4O[C@@H](n5cnc6c(N)ncnc65)[C@H](F)[C@@H]4OP(=O)(O)OC[C@H]4O[C@@H](n5ccc(=O)[nH]c5=O)[C@H](O3)[C@@H]4F)cc2)cc1` (some centres unmarked) [Compound 4], in test [1], the “activity against wild type STING” value was “possess activity”. For the same compound, the “activity against wt-mSTING” value in test [2] is reported as “possess activity”. Moreover, in test [3] (intravenously at 1 mg/kg and 3 mg/kg), the “tumor growth compared to the vehicle” value was “Tumor growth was slowed”. The “individual times to endpoint vs vehicle group” value in test [3] (treatment groups 1 and 3 mg/kg i.v.) is given as “took longer to reach the endpoint”. In test [3] (treatment groups 1 and 3 mg/kg i.v., Days 1, 5, 9, 14, TGI on Day 18), the “tumor growth inhibition compared to the vehicle group” value is “at least 89%”. Further, in test [3] (treatment groups 1 and 3 mg/kg i.v., Days 1, 5, 9, 14, endpoint tumor volume 2000 mm^3), the “time to reach the endpoint, longer than vehicle group” value is “at least 10 days”. For the same compound, the “tumor volume distribution on day 18 vs vehicle group” value in test [3] (treatment groups 1 and 3 mg/kg i.v., day 18) is reported as “significantly smaller tumor volumes”. The “percent of mice remaining (Kaplan-Meier) vs vehicle group” value in test [3] (treatment groups 1 and 3 mg/kg i.v., day 21) is listed as “greater percent of mice remaining”.
On to `N.N.Nc1ncnc2c1ncn2[C@@H]1O[C@@H]2COP(=O)(S)O[C@@H]3[C@H](F)[C@@H](COP(=O)(O)O[C@H]2[C@H]1F)O[C@H]3n1ccc(=O)[nH]c1=O` (some centres unmarked) [Compound 3], for which the “activity against wild type STING” value in test [1] is reported as “possess activity”. In addition, in test [2], the “activity against wt-mSTING” value is on record as “possess activity”. The “tumor growth compared to the vehicle” value in test [3] (intravenously at 3 mg/kg) is recorded as “Tumor growth was slowed”.
